Experimental data from US20220330549A1, “USE OF N-BENZYLBENZAMIDE-BASED COMPOUND AS HERBICIDE” (Northwest A&F University, priority 2020, published 2022).

Assays:
Type in all cases: in vivo
green bristlegrass [1] = test: Herbicidal activity test for indoor pre-emergence soil treatment; parameters: key: level 1-9; higher = more weed remaining vs blank control; conditions: 150 g a.i./ha, visual inspection 21 days after treatment
Summary of the method: (§1)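 Pre-emergence test following NY/T 1155.3-2006: weed seeds were sown in moistened neutral sandy loam (≤2% organic matter) and covered with 0.5–2.0 cm of soil. After 24 h, the soil was sprayed with a 10% EC diluted in water at 150 g(a.i.)/ha. Damage was scored visually on a 1–9 scale at 21 days.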

Barnyard grass [2] = test: as above; parameters: key: level 1-9; higher = more weed remaining vs blank control; conditions: 150 g a.i./ha, visual inspection 21 days after treatment
Summary of the method: as §1

Piemarker [3] = test: as above; parameters: key: level 1-9; higher = more weed remaining vs blank control; conditions: 150 g a.i./ha, visual inspection 21 days after treatment
Summary of the method: as §1

green bristlegrass [4] = test: Herbicidal activity test for indoor post-emergence spraying on stems and leaves; parameters: key: grade level by weed remaining vs blank control, e.g. 5 = 10.1-15%; conditions: 150 g a.i./ha, visual inspection 21 days after treatment
Summary of the method: (§2)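 Post-emergence stem and leaf spray in an indoor test following NY/T 1155.4-2006, with weeds sown and grown in a greenhouse. Effect scored visually 21 days after treatment as graded levels, each level set by the percentage of weed remaining relative to the blank control area.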

Barnyard grass [5] = test: as above; parameters: key: grade level by weed remaining vs blank control, e.g. 5 = 10.1-15%; conditions: 150 g a.i./ha, visual inspection 21 days after treatment
Summary of the method: as §2

Piemarker [6] = test: as above; parameters: key: grade level by weed remaining vs blank control, e.g. 5 = 10.1-15%; conditions: 150 g a.i./ha, visual inspection 21 days after treatment
Summary of the method: as §2

Humulus scandens [7] = test: as above; parameters: key: grade level by weed remaining vs blank control, e.g. 5 = 10.1-15%; conditions: 150 g a.i./ha, visual inspection 21 days after treatment
Summary of the method: as §2

Amaranthus retroflexus [8] = test: as above; parameters: key: grade level by weed remaining vs blank control, e.g. 5 = 10.1-15%; conditions: 150 g a.i./ha, visual inspection 21 days after treatment
Summary of the method: as §2

Digitaria sanguinalis [9] = test: as above; parameters: key: grade level by weed remaining vs blank control, e.g. 5 = 10.1-15%; conditions: 150 g a.i./ha, visual inspection 21 days after treatment
Summary of the method: as §2

green bristlegrass [10] = test: Field test for weed control in a corn field; conditions: 150 g a.i./ha, after treatment
Summary of the method: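 Post-emergence weed control was tested in a corn field following GB/T 17980.42-2000. When the corn had 2 leaves to 5 leaves after sowing, 10% emulsifiable concentrates diluted in water were sprayed at 150 g(a.i.)/ha on 20 m^2 plots, four replicates per treatment. Effects on green bristlegrass were scored on a 1-9 damage scale relative to the blank control area.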

Portulaca oleracea = test: Field test for weed control in a corn field; conditions: 150 g a.i./ha, after treatment
Summary of the method: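 Field efficacy trial in corn following GB/T 17980.42-2000. Test compounds were prepared as 10% emulsifiable concentrates, diluted in water, and sprayed at 150 g(a.i.)/ha when corn had 2 to 5 leaves after sowing. Plots were 20 m^2 with 4 replicates per treatment. Herbicidal activity was scored on a 1-9 scale from weed damage symptoms and severity.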

Acalypha australis = test: Field test for weed control in a corn field; conditions: 150 g a.i./ha, after treatment
Summary of the method: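 Post-emergence field trial in a corn field following GB/T 17980.42-2000. Test compounds were formulated as 10% emulsifiable concentrates, diluted in water, and sprayed at 150 g(a.i.)/ha when corn had 2 to 5 leaves, with 4 replicates on 20 m^2 plots. Mesotrione 25% oil dispersion served as the control agent. Weed control was scored on a 1-9 scale.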

Barnyard grass [11] = test: Field test for weed control in a corn field; conditions: 150 g a.i./ha, 30 days after treatment
Summary of the method: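 Corn-field efficacy trial following GB/T 17980.42-2000. Test compounds were formulated as 10% emulsifiable concentrates, diluted in water and sprayed post-emergence at 150 g(a.i.)/ha when corn had 2 to 5 leaves. Each treatment was replicated 4 times on 20 m^2 plots. Barnyard grass control was rated on a 1-9 damage scale.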

nutgrass flatsedge = test: Field test for weed control in a corn field; conditions: 150 g a.i./ha, after treatment
Summary of the method: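 A corn field efficacy trial following GB/T 17980.42-2000 assessed post-emergence control of nutgrass flatsedge. Test compounds were formulated as 10% emulsifiable concentrates, diluted in water, and sprayed at 150 g(a.i.)/ha when the corn had 2 to 5 leaves. Each treatment had 4 replicates on 20 m^2 plots. Herbicidal activity was graded on a 1-9 scale by damage symptoms and severity.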

Chenopodium album = test: Field test for weed control in a corn field; conditions: 150 g a.i./ha, after treatment
Summary of the method: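 A corn-field efficacy trial following GB/T 17980.42-2000 tested post-emergence control of Chenopodium album. Test compounds formulated as 10% emulsifiable concentrates were diluted in water and sprayed at 150 g(a.i.)/ha when the corn had 2 leaves to 5 leaves, on 20 m^2 plots with 4 replicates. Herbicidal activity was rated on a 1-9 scale by damage symptoms and severity.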

goosegrass = test: Field test for weed control in a corn field; conditions: 150 g a.i./ha, after treatment
Summary of the method: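 Weed control efficacy against goosegrass was tested in a corn field following GB/T 17980.42-2000. Compounds formulated as 10% emulsifiable concentrates were diluted in water and sprayed post-emergence at 150 g(a.i.)/ha when corn had 2 to 5 leaves, with 4 replicates of 20 m^2 plots. Herbicidal activity was rated on a 1-9 scale by damage symptoms and severity.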

Convolvulus arvensis = test: Field test for weed control in a corn field; conditions: 150 g a.i./ha, after treatment
Summary of the method: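 Field trial of weed control against Convolvulus arvensis in corn, run following GB/T 17980.42-2000. Test agents were formulated as 10% emulsifiable concentrates and sprayed in water at 150 g(a.i.)/ha when corn plants had 2 to 5 leaves. Each treatment was replicated 4 times on 20 m^2 plots, and 25% mesotrione oil dispersion served as the control agent.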

Amaranthus retroflexus [12] = test: Field test for weed control in a corn field; conditions: 150 g a.i./ha, 30 days after treatment
Summary of the method: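 Field efficacy trial in a corn field following GB/T 17980.42-2000. Test compounds were formulated as 10% emulsifiable concentrates, diluted in water and sprayed post-emergence when corn had 2 to 5 leaves. Each treatment covered 20 m^2 with 4 replicates. A 25% mesotrione oil dispersion served as control. Damage to Amaranthus retroflexus was rated on a 1-9 scale against untreated blank plots.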

Digitaria sanguinalis [13] = test: Field test for weed control in a corn field; conditions: 150 g a.i./ha, after treatment
Summary of the method: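 Field trial in a corn field following GB/T 17980.42-2000. Test compounds were formulated as 10% emulsifiable concentrates, diluted in water and sprayed post-emergence at 150 g(a.i.)/ha when corn had 2 to 5 leaves, with 4 replicates on 20 m^2 plots. Control of Digitaria sanguinalis was scored on a 1-9 scale based on weed damage relative to the untreated blank area.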

Solanum nigrum = test: Field test for weed control in a corn field; conditions: 150 g a.i./ha, 30 days after treatment
Summary of the method: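 Post-emergence weed control was tested in a corn field following GB/T 17980.42-2000. Compounds were made into 10% emulsifiable concentrates, diluted in water and sprayed at 150 g(a.i.)/ha when corn had 2 to 5 leaves after sowing, in 20 m^2 plots with 4 replicates. Effects on Solanum nigrum were graded on a 1-9 scale relative to the blank control area.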

Amaranthus retroflexus [14] = test: Herbicidal activity test for indoor pre-emergence soil treatment; parameters: key: 1-9 levels; higher = more weed remaining vs blank control; conditions: 150 g a.i./ha, visual inspection 21 days after treatment
Summary of the method: as §1

Digitaria sanguinalis [15] = test: as above; parameters: key: 1-9 levels; higher = more weed remaining vs blank control; conditions: 150 g a.i./ha, visual inspection 21 days after treatment
Summary of the method: as §1

Gramineae = test: Post-emergence herbicidal activity test in a paddy field; parameters: key: level scale; higher level = more weed left vs blank control; conditions: 150 g a.i./ha (penoxsulam control 250 g(a.i.)/h)
Summary of the method: (§3)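 Efficacy was visually estimated 15 and 30 days after spraying, grading weed coverage relative to an untreated neighbouring plot (level 2 = 0 to 2.5%, level 9 = 67.6 to 100%). Treatments were 150 g(a.i.)/ha from 10% emulsifiable concentrates applied at the 4-5 leaf rice stage, four repeats of 50 m^2 each.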

Cyperaceae = test: as above; parameters: key: level scale; higher level = more weed left vs blank control; conditions: 150 g a.i./ha (penoxsulam control 250 g(a.i.)/h)
Summary of the method: as §3

Broadleaf weed = test: as above; parameters: key: level scale; higher level = more weed left vs blank control; conditions: 150 g a.i./ha (penoxsulam control 250 g(a.i.)/h)
Summary of the method: as §3

Humulus scandens [16] = test: Herbicidal activity test for indoor pre-emergence soil treatment; conditions: 150 g a.i./ha, visual inspection 21 days after treatment
Summary of the method: as §1

| SMILES | Herbicidal Activity Green bristlegrass (green bristlegrass [1]) | Herbicidal Activity Barnyard grass (Barnyard grass [2]) | Herbicidal Activity Piemarker (Piemarker [3]) | Herbicidal Activity Green bristlegrass (green bristlegrass [4]) | Herbicidal Activity Barnyard grass (Barnyard grass [5]) | Herbicidal Activity Piemarker (Piemarker [6]) | Herbicidal Activity Humulus scandens (Humulus scandens [7]) | Herbicidal Activity Amaranthus retroflexus (Amaranthus retroflexus [8]) | Herbicidal Activity Digitaria sanguinalis (Digitaria sanguinalis [9]) | Post-emergence weed control effect, Green bristlegrass (green bristlegrass [10]) | Post-emergence weed control effect, Portulaca oleracea (Portulaca oleracea) | Post-emergence weed control effect, Acalypha australis (Acalypha australis) | Post-emergence weed control effect, Barnyard grass (Barnyard grass [11]) | Post-emergence weed control effect, Nutgrass flatsedge (nutgrass flatsedge) | Post-emergence weed control effect, Chenopodium album (Chenopodium album) | Post-emergence weed control effect, Goose grass (goosegrass) | Post-emergence weed control effect, Convolvulus arvensis (Convolvulus arvensis) | Post-emergence weed control effect, Amaranthus retroflexus (Amaranthus retroflexus [12]) | Post-emergence weed control effect, Digitaria sanguinalis (Digitaria sanguinalis [13]) | Post-emergence weed control effect, Solanum nigrum (Solanum nigrum) | also measured |
| --- | --- | --- | --- | --- | --- | --- | --- | --- | --- | --- | --- | --- | --- | --- | --- | --- | --- | --- | --- | --- | --- |
| Cc1cccc(C(=O)NCc2cccc(F)c2)c1 [Compound B01] | 1 | 2 (equivalent to 0 to 2.5% of the weed in the blank control area) | 2 (equivalent to 0 to 2.5% of the weed in the blank control area) | 1 | 2 (equivalent to 0 to 2.5% of the weed in the blank control area) | 1 | 1 | 1 | 1 | 1 | 1 | 2 (equivalent to 0 to 2.5% of the weed in the blank control area) | 1 | 2 (equivalent to 0 to 2.5% of the weed in the blank control area) | 1 | 1 | 2 (equivalent to 0 to 2.5% of the weed in the blank control area) | 1 | 1 | 2 (equivalent to 0 to 2.5% of the weed in the blank control area) | Herbicidal Activity Amaranthus retroflexus (Amaranthus retroflexus [14]): 1; Herbicidal Activity Digitaria sanguinalis (Digitaria sanguinalis [15]): 1; Herbicidal activity 15 days after treatment Gramineae (Gramineae): 2 (equivalent to 0 to 2.5% of the weed in the blank control area); Herbicidal activity 30 days after treatment Gramineae (Gramineae): 2 (equivalent to 0 to 2.5% of the weed in the blank control area); Herbicidal activity 15 days after treatment Cyperaceae (Cyperaceae): 2 (equivalent to 0 to 2.5% of the weed in the blank control area); Herbicidal activity 30 days after treatment Cyperaceae (Cyperaceae): 2 (equivalent to 0 to 2.5% of the weed in the blank control area); Herbicidal activity 15 days after treatment Broadleaf weed (Broadleaf weed): 1; Herbicidal activity 30 days after treatment Broadleaf weed (Broadleaf weed): 2 (equivalent to 0 to 2.5% of the weed in the blank control area); Herbicidal Activity Humulus scandens (Humulus scandens [16]): 2 (equivalent to 0 to 2.5% of the weed in the blank control area) |
| Cc1cccc(C(=O)NCc2ccc(F)cc2)c1 [Compound B02] | 1 | 1 | 2 (equivalent to 0 to 2.5% of the weed in the blank control area) | 1 | 1 | 1 | 1 | 1 | 1 | 1 | 1 | 2 (equivalent to 0 to 2.5% of the weed in the blank control area) | 1 | 2 (equivalent to 0 to 2.5% of the weed in the blank control area) | 1 | 2 (equivalent to 0 to 2.5% of the weed in the blank control area) | 1 | 1 | 2 (equivalent to 0 to 2.5% of the weed in the blank control area) | 2 (equivalent to 0 to 2.5% of the weed in the blank control area) | Herbicidal Activity Amaranthus retroflexus (Amaranthus retroflexus [14]): 1; Herbicidal Activity Digitaria sanguinalis (Digitaria sanguinalis [15]): 2 (equivalent to 0 to 2.5% of the weed in the blank control area); Herbicidal activity 15 days after treatment Gramineae (Gramineae): 2 (equivalent to 0 to 2.5% of the weed in the blank control area); Herbicidal activity 30 days after treatment Gramineae (Gramineae): 2 (equivalent to 0 to 2.5% of the weed in the blank control area); Herbicidal activity 15 days after treatment Cyperaceae (Cyperaceae): 1; Herbicidal activity 30 days after treatment Cyperaceae (Cyperaceae): 1; Herbicidal activity 15 days after treatment Broadleaf weed (Broadleaf weed): 1; Herbicidal activity 30 days after treatment Broadleaf weed (Broadleaf weed): 1; Herbicidal Activity Humulus scandens (Humulus scandens [16]): 2 (equivalent to 0 to 2.5% of the weed in the blank control area) |
